Measurements from ChEMBL document CHEMBL2380269, “Conformationally restricted homotryptamines. Part 6: indole-5-cycloalkyl methylamines as selective serotonin reuptake inhibitors” (Bioorg Med Chem Lett, 2013).
pIC50: −log10 of the molar value.

Experiments:
HEK293 [1] = assay: Ratio of IC50 for human NET expressed in HEK293 cell membranes to IC50 for human SERT expressed in HEK293 cell membranes; format: cell-based
HEK293 [2] = assay: Ratio of IC50 for human DAT expressed in HEK293 cell membranes to IC50 for human SERT expressed in HEK293 cell membranes; format: cell-based
[3] = target: Sodium-dependent serotonin transporter (Homo sapiens, UniProt P31645); assay: Displacement of [3H]citalopram from human SERT expressed in HEK293 cell membranes
Chain of Sodium-dependent serotonin transporter (P31645 whole entry): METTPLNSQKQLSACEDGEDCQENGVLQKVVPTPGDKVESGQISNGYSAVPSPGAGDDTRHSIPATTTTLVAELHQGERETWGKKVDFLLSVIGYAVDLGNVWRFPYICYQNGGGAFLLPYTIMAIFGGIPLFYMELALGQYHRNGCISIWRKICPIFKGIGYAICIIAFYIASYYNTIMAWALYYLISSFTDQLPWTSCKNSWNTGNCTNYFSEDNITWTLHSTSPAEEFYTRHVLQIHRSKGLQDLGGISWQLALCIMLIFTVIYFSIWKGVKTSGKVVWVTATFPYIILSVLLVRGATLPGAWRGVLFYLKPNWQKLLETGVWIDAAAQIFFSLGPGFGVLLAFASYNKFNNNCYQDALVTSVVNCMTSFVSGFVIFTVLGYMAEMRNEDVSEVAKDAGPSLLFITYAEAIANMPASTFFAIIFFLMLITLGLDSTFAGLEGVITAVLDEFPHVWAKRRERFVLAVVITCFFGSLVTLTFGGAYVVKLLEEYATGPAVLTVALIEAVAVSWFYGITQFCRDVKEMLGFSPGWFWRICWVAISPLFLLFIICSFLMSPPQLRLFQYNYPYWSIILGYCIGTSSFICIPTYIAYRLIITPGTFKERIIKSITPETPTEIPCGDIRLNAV

[4] = target: T1, Sodium-dependent dopamine transporter (Homo sapiens, UniProt Q01959); assay: Displacement of [3H]WIN-35428 form human DAT expressed in HEK293 cell membranes at 1 uM
T1 sequence (Q01959 whole entry): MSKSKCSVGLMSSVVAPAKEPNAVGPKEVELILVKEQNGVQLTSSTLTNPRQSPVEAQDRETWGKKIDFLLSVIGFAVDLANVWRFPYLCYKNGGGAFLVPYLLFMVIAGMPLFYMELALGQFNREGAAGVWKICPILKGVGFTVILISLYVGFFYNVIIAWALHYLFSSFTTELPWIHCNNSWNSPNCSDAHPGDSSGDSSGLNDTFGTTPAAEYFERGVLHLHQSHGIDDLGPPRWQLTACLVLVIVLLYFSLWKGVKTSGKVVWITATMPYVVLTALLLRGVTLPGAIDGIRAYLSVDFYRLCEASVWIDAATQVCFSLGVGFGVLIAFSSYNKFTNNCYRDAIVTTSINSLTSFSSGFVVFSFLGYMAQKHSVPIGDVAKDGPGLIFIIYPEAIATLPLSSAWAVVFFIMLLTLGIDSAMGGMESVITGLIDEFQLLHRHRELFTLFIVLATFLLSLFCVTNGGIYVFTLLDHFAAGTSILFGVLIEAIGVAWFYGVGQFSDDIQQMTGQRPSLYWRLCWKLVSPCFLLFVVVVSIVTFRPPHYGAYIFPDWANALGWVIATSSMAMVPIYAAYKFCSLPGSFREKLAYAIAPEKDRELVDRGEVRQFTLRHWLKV

[5] = target: T2, Sodium-dependent noradrenaline transporter (Homo sapiens, UniProt P23975); assay: Displacement of [3H]nisoxetine from human NET expressed in HEK293 cell membranes at 1 uM
T2 sequence (P23975 whole entry): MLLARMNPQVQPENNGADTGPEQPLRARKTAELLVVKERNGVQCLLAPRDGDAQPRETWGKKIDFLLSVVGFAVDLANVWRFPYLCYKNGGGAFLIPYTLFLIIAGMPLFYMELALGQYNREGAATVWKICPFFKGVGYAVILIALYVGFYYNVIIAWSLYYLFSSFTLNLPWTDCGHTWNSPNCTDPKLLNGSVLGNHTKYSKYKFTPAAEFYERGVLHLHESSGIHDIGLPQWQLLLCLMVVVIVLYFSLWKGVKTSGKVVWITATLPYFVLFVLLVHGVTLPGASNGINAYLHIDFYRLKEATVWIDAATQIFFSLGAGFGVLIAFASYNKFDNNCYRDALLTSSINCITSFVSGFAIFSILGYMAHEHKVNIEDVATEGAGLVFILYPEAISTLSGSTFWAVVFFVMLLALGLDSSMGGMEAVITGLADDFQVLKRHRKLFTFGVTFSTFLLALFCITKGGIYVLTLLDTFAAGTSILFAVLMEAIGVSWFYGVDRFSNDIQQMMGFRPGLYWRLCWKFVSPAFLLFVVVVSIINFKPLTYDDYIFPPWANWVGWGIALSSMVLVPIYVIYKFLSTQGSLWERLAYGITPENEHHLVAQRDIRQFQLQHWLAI

[6] = target: T1, Sodium-dependent dopamine transporter; assay: Displacement of [3H]WIN-35428 form human DAT expressed in HEK293 cell membranes
[7] = target: T2, Sodium-dependent noradrenaline transporter; assay: Displacement of [3H]nisoxetine from human NET expressed in HEK293 cell membranes

## CN(C)C[C@H]1CCC[C@H]1c1ccc2[nH]cc(C#N)c2c1 (racemic)
HEK293 [1]
  Ratio IC50: > 100
HEK293 [2]
  Ratio IC50: > 100
[3]
  pIC50: 7.74
[4]
  inhibition: 56%
[5]
  inhibition: 68%

## N#Cc1c[nH]c2ccc([C@@H]3CCC[C@H]3CN3CCCC3)cc12 (racemic)
[3]
  pIC50: 6.52

## CN(C)C[C@@H]1C[C@H]1c1ccc2[nH]cc(C#N)c2c1 (racemic)
HEK293 [1]
  Ratio IC50: > 100
HEK293 [2]
  Ratio IC50: > 100
[3]
  pIC50: 8.22
[4]
  inhibition: 39%
[5]
  inhibition: 55%

## CNC[C@@H]1CCC[C@H]1c1ccc2[nH]cc(C#N)c2c1 (racemic)
HEK293 [1]
  Ratio IC50: > 100
HEK293 [2]
  Ratio IC50: > 100
[3]
  pIC50: 8.37
[4]
  inhibition: 49%
[5]
  inhibition: 16%
[6]
  pIC50: 6.12
[7]
  pIC50: 5.43

## CN(C)C[C@H]1C[C@@H]1c1c[nH]c2ccc(C#N)cc12
[3]
  pIC50: 9.25

## CN(Cc1ccccc1)C[C@@H]1CCC[C@H]1c1ccc2[nH]cc(C#N)c2c1 (racemic)
[3]
  pIC50: 6.85

## CN(C)C[C@H]1C[C@@H]1Cc1ccc2[nH]cc(C#N)c2c1 (racemic)
HEK293 [1]
  Ratio IC50: > 100
HEK293 [2]
  Ratio IC50: > 100
[3]
  pIC50: 7.01
[4]
  inhibition: 17%
[5]
  inhibition: 25%

## CN(C)C[C@H]1CCC[C@H]1c1c[nH]c2ccc(C#N)cc12
[3]
  pIC50: 8.96

## CCNC[C@@H]1CCC[C@H]1c1ccc2[nH]cc(C#N)c2c1 (racemic)
[3]
  pIC50: 6.59

## CN(C)C[C@@H]1CCC[C@H]1c1ccc2[nH]cc(C#N)c2c1 (racemic)
HEK293 [1]
  Ratio IC50: > 100
HEK293 [2]
  Ratio IC50: > 100
[3]
  pIC50: 8.42
[4]
  inhibition: 50%
[5]
  inhibition: -1.7%
[7]
  pIC50: 5.09

## CNC[C@H]1CCC[C@H]1c1ccc2[nH]cc(C#N)c2c1 (racemic)
HEK293 [1]
  Ratio IC50: 10
HEK293 [2]
  Ratio IC50: 10
[3]
  pIC50: 7.19
[4]
  inhibition: 53%
[5]
  inhibition: 78%
[6]
  pIC50: 6.18
[7]
  pIC50: 6.29

## CCN(CC)C[C@@H]1CCC[C@H]1c1ccc2[nH]cc(C#N)c2c1 (racemic)
[3]
  pIC50: 6.15

## CN(C)C[C@@H]1C[C@H]1c1ccc2[nH]ccc2c1 (racemic)
[3]
  pIC50: < 6.00

## CN(C)C[C@@H]1CCC[C@H]1c1ccc2c(c1)c(C#N)cn2C (racemic)
[3]
  pIC50: 6.24

## CCN(C)C[C@@H]1CCC[C@H]1c1ccc2[nH]cc(C#N)c2c1 (racemic)
[3]
  pIC50: 6.70
